Marks after values point to notes of the source that are not given here.
Columns and labels:
Oatp1b2 = assay: CDCA-24G plasma biomarker of hepatic Oatp1b2 function in mice; type: in vivo; details: single oral letrozole 10 mg/kg, 2 hours
Description: A, The levels of CDCA-24G biomarker in plasma were measured via LC/MS-MS in wild-type and Cyp3a^(−/−) mice treated with a single oral administration of letrozole (10 mg/kg) or vehicle. […] Data are shown as mean ± SD. Two-sided, unpaired Student t tests were used to analyze the data and no multiple comparison adjustment was applied. **, P < 0.01 and ****, P < 0.0001 compared with the wild-type group; n = 9 to 10 per group.

mice [1] = assay: Photobeam activity open field system (physical activity); type: in vivo
Description: An open-field photobeam activity system was used to monitor the motor activity of mice over a period of 12 hours after administration of letrozole ([27], [28]). Spontaneous physical/locomotor activity was assessed using an activity monitoring system consisting of a two-dimensional (X and Y axes) square frame that emits a grid of infrared beams (IR Actimeter and Actitrack software, Panlab, Harvard Apparatus). Animals were placed in a transparent enclosure inside the frame, and movement within the enclosure (general locomotor activity) was recorded as interruptions in the beams. During acute studies, mice were dosed with letrozole (0.5 mg/kg) orally at 5:00 pm and were tested individually for 12 hours during the active/dark phase of the light cycle (6:00 pm–6:00 am). Physical activity of the mice was similarly monitored at baseline and at the end of 15 days of the chronic treatment.

mice [2] = assay: Von Frey hair test (mechanical sensitivity); type: in vivo
Description: Von Frey filaments were used as a mechanical sensitivity measurement following administration of letrozole in both chronic and acute treatments, using a strategy developed previously ([24]). After ensuring that the animal is acquainted with the environment, joint pain was directly evaluated by a hind limb withdrawal response to mechanical stimulation applied by the filaments. […] After a single dose, mechanical sensitivity was tested with the Von Frey filaments at 0, 1, 3, 6, and 24 hours after drug administration ([25], [26]). During the chronic treatment of letrozole (0.1 mg/kg/day for 15 days), mechanical sensitivity was measured at baseline, at the end of week 1, and the end of week 2. Analysts were blinded to the composition of the treatment groups.

mice [3] = assay: Histopathology of knee joints after chronic letrozole; type: in vivo; details: mice receiving multiple doses of letrozole (0.1 mg/kg/day, 15 days)
Description: At the end of the chronic letrozole treatment, hind limbs of three randomly selected mice per group were collected, peeled for skin, and preserved in 10% neutral buffered formaline at room temperature for at least 48 hours until tissue processing. Tissues from the hind limbs were routinely processed for histopathology on a Leica Peloris 3 Tissue Processor (Leica Biosystems), embedded in paraffin, sectioned at an approximate thickness of 4 to 5 μm, and batch stained with hematoxylin and eosin on a Leica ST5020 autostainer using a routine and quality-controlled protocol. Slides were evaluated and representative photomicrographs were taken by a board-certified veterinary pathologist using a Nikon Eclipse Ci-L Upright Microscope (Nikon Instruments, Inc.) with attached 18 megapixel Olympus SC180 microscope-mounted digital camera and cellSens imaging software (Olympus Life Science).

[4] = set-up: method as in earlier work; details: patients receiving continuous dosing regimens, prescribing information; cited from earlier work
patients = details: 2.5 mg daily for 5 years vs intermittent regimen, randomized phase III; cited from earlier work
[5] = In vivo pharmacokinetic studies in mice (plasma and liver, LC/MS-MS); details: for AUC fold change vs. WT: 95% confidence interval; for AUC(0-t) / Cmax: female, FVB, mouse, plasma, po, 10 mg/kg
Description: The analysis was conducted using a Vanquish UHPLC aligned with a Quantiva triple-stage quadrupole mass spectrometer (Thermo Fisher Scientific). An ACQUITY UPLC BEH C18 Column (130 Å, 1.7 μm, 2.1 mm × 50 mm, Waters Co.) protected by ACQUITY UPLC BEH Shield RP18 VanGuard Pre-column (130 Å, 1.7 μm, 2.1 mm × 5 mm, Waters Co.) was used for analyte separation. The injection volume of the sample was 10 μL. The temperature of the column was kept at 40°C, whereas the autosampler rack was kept at 4°C. The mobile phase consisted of solvent A, which was a solution of 0.1% acetic acid in LC/MS-grade water, and solvent B, which was a solution of 0.1% formic acid in acetonitrile. The total run time was 4.5 minutes. The following were the gradient conditions: 0.3 mL/minutes was the flow rate for the following intervals: 0 to 0.5 minutes, 30% B; 0.5 to 3.0 minutes, 30% to 95% B; 3.0 to 4.0 minutes, 95% B; and 4.001 to 4.5 minutes, 95% to 30% B. The vaporizer was adjusted to 360°C, and the ion transfer tube temperature was 340°C. The mass spectrometry assay was configured with a positive voltage of 3600 V delivered to the ESI capillary. The collision gas utilized was argon, with a pressure of 1.5 mTorr. The mass spectrometer was set up with the following optimized parameters: 1 arbitrary unit (Arb) for sweep gas, 5 Arb for auxiliary gas, and 25 Arb for sheath gas. […] The accuracy, expressed as a percent bias varied from −7.80% to 5.10%, whereas the inter-assay and intra-assay precisions ranged from 2.19% to 7.09% according to the results of assay validation tests. The lower limit of quantification was 0.4 ng/mL.
Letrozole was quantified using an LC/MS-MS method described previously ([14]). A Vanquish UHPLC and Quantiva triple-stage quadrupole mass spectrometer (Thermo Fisher Scientific) were used in the analysis. Analytes were separated chromatographically using a C18 AQUASIL guard cartridge (2.1 mm × 10 mm, 3 μm; Thermo Fisher Scientific) and an Accucore aQ column (50 mm × 2.1 mm, 2.6 μm). The temperature of the column was set at 40°C, whereas the autosampler was kept at 4°C. The mobile phase consisted of solvent A, which was a solution of 0.1% acetic acid in LC/MS-grade water, and solvent B, which was a solution of 0.1% formic acid in acetonitrile. A gradient elution method was employed for 5.0 minutes, with a flow rate of 0.4 mL/minutes. […] Injections were performed using 3 μL of the extracted samples. The mass spectrometer parameters were optimized and configured as follows: 25 Arb for sheath gas, 5 Arb for auxiliary gas, and 1 Arb for sweep gas. The temperature of the ion transfer tube and vaporizer was adjusted to 340°C and 360°C, respectively. Argon was used as the collision gas at a pressure of 1.5 mTorr. […] The lower limit of quantification was 5 ng/mL.
Female wild-type, Oatp1a/1b cluster-knockout mice [Oatp1a/1b^(−/−) mice] and Oatp1a/1b^(−/−) mice with transgenic hepatic expression of OATP1B1 [OATP1B1^(tg) mice] or OATP1B3 [OATP1B3^(tg) mice] were all on an FVB background (RRID: IMSR_T000141), and experimental groups were age- and weight-matched for each experiment. Female mice with a deficiency of all Cyp3a isoforms [Cyp3a^(−/−)] were similarly matched with FVB wild-type mice. All mice were bred in-house. Littermates of the same sex and genotype were housed in groups of maximally five animals in a temperature- and light-controlled environment (12-hour light/dark cycles) in cages lined with absorbent bedding. Mice were given free access to standard food and water.
For in vivo pharmacokinetic studies, mice were randomized into experimental groups of equal size.

[6] = OATP1B1^(tg) mice, chronic letrozole 0.1 mg/kg/day for 15 days, 12 hours
[7] = OATP1B1^(tg) mice, single oral letrozole 0.5 mg/kg, 12 hours
[8] = OATP1B3^(tg) mice, chronic letrozole 0.1 mg/kg/day for 15 days, 12 hours
[9] = OATP1B3^(tg) mice, single oral letrozole 0.5 mg/kg, 12 hours
[10] = Oatp1a/1b^(−/−) mice, chronic letrozole 0.1 mg/kg/day for 15 days, 12 hours
[11] = Oatp1a/1b^(−/−) mice, single oral letrozole 0.5 mg/kg, 12 hours
[12] = wild-type mice, chronic letrozole 0.1 mg/kg/day for 15 days, 12 hours
[13] = wild-type mice, letrozole 0.5 mg/kg, 12 h, Table S4
[14] = wild-type mice, single oral letrozole 0.5 mg/kg, 12 hours
[15] = wild-type mice, single oral letrozole 0.5 mg/kg, 12 hours, listed as letrozole

SMILES: N#Cc1ccc(C(c2ccc(C#N)cc2)n2cncn2)cc1 [Letrozole]
- increase of CDCA-24G concentration in plasma vs vehicle control (Oatp1b2; Cyp3a^(−/−) mice): 2.17 fold
- increase of CDCA-24G concentration in plasma vs vehicle control (Oatp1b2; wild-type mice): 1.62 fold
- Activ. (global activity) (mice [1]; [6]): 28,800
- Dist. (total distance traveled) (mice [1]; [6]): 380 m
- Locom. (locomotion) (mice [1]; [6]): 25,909
- MF (%) (moving fast) (mice [1]; [6]): 6.22%
- MS (%) (moving slow) (mice [1]; [6]): 11.58%
- RT (%) (resting time % of total duration) (mice [1]; [6]): 82.19%
- Res.T. (resting time) (mice [1]; [6]): 9.86 h
- Stere. (stereotypes) (mice [1]; [6]): 2,892
- Activ. (global activity) (mice [1]; [7]): 31,678
- Dist. (total distance traveled) (mice [1]; [7]): 377 m
- Locom. (locomotion) (mice [1]; [7]): 28,964
- MF (%) (moving fast) (mice [1]; [7]): 6.60%
- MS (%) (moving slow) (mice [1]; [7]): 11.08%
- RT (%) (resting time % of total duration) (mice [1]; [7]): 82.34%
- Res.T. (resting time) (mice [1]; [7]): 9.88 h
- Stere. (stereotypes) (mice [1]; [7]): 2,713
- Activ. (global activity) (mice [1]; [8]): 29,841
- Dist. (total distance traveled) (mice [1]; [8]): 373 m
- Locom. (locomotion) (mice [1]; [8]): 27,036
- MF (%) (moving fast) (mice [1]; [8]): 6.28%
- MS (%) (moving slow) (mice [1]; [8]): 12.01%
- RT (%) (resting time % of total duration) (mice [1]; [8]): 81.71%
- Res.T. (resting time) (mice [1]; [8]): 9.80 h
- Stere. (stereotypes) (mice [1]; [8]): 2,804
- Activ. (global activity) (mice [1]; [9]): 27,095
- Dist. (total distance traveled) (mice [1]; [9]): 340 m
- Locom. (locomotion) (mice [1]; [9]): 24,448
- MF (%) (moving fast) (mice [1]; [9]): 5.72%
- MS (%) (moving slow) (mice [1]; [9]): 11.06%
- RT (%) (resting time % of total duration) (mice [1]; [9]): 83.22%
- Res.T. (resting time) (mice [1]; [9]): 9.98 h
- Stere. (stereotypes) (mice [1]; [9]): 2,647
- Activ. (global activity) (mice [1]; [10]): 26,637
- Dist. (total distance traveled) (mice [1]; [10]): 316 m
- Locom. (locomotion) (mice [1]; [10]): 24,065
- MF (%) (moving fast) (mice [1]; [10]): 5.23%
- MS (%) (moving slow) (mice [1]; [10]): 11.23* %
- RT (%) (resting time % of total duration) (mice [1]; [10]): 83.55* %
- Res.T. (resting time) (mice [1]; [10]): 10.0* hours
- Stere. (stereotypes) (mice [1]; [10]): 2,572
- Activ. (global activity) (mice [1]; [11]): 26,674
- Dist. (total distance traveled) (mice [1]; [11]): 286 m
- Locom. (locomotion) (mice [1]; [11]): 24,494
- MF (%) (moving fast) (mice [1]; [11]): 4.64%
- MS (%) (moving slow) (mice [1]; [11]): 10.40%
- RT (%) (resting time % of total duration) (mice [1]; [11]): 84.96%
- Res.T. (resting time) (mice [1]; [11]): 10.2 h
- Stere. (stereotypes) (mice [1]; [11]): 2,180*
- Activ. (global activity) (mice [1]; [12]): 30,580
- Dist. (total distance traveled) (mice [1]; [12]): 383 m
- Locom. (locomotion) (mice [1]; [12]): 27,528
- MF (%) (moving fast) (mice [1]; [12]): 6.32%
- MS (%) (moving slow) (mice [1]; [12]): 13.30%
- RT (%) (resting time % of total duration) (mice [1]; [12]): 80.34%
- Res.T. (resting time) (mice [1]; [12]): 9.64 h
- Stere. (stereotypes) (mice [1]; [12]): 3,052
- Dist. (total distance traveled) (mice [1]; [13]): 512 m
- Res.T. (resting time) (mice [1]; [13]): 9.06 h
- Activ. (global activity) (mice [1]; [14]): 41163
- Dist. (total distance traveled) (mice [1]; [14]): 512 m
- Locom. (locomotion) (mice [1]; [14]): 37261
- MF (%) (moving fast) (mice [1]; [14]): 8.90%
- MS (%) (moving slow) (mice [1]; [14]): 15.53%
- RT (%) (resting time % of total duration) (mice [1]; [14]): 75.55%
- Res.T. (resting time) (mice [1]; [14]): 9.06 h
- Stere. (stereotypes) (mice [1]; [14]): 3902
- Activ. (global activity) (mice [1]; [15]): 41,163
- Locom. (locomotion) (mice [1]; [15]): 37,261
- Stere. (stereotypes) (mice [1]; [15]): 3,902
- arthralgia-related changes in mechanical sensitivity (mice [2]; Oatp1a/1b^(−/−) mice vs humanized transgenic and wild-type mice, letrozole 0.1 mg/kg daily for 15 days): worst arthralgia-related phenotypic changes in mechanical sensitivity
- time of maximal mechanical sensitivity after drug administration (mice [2]; wild-type mice, single dose of letrozole): 6 h
- mechanical allodynia (paw withdrawal threshold) (mice [2]; wild-type mice, single dose of letrozole 0.1-0.5 mg/kg): reversible, concentration- and time-dependent allodynia
- lesions in knee joints (histopathologic examination) (mice [3]): synovial hyperplasia, synovitis, and patellar tendinitis
- accumulation in plasma [4]: does not substantially accumulate
- 7-year disease-free survival, intermittent vs continuous (patients): comparable
- incidence of arthralgia, intermittent vs continuous dosing (patients): only slightly decreased
- AUC fold change vs. WT ([5]; Cyp3a^(−/−) vs wild-type mice, letrozole 10 mg/kg oral): 1.59 (1.34–1.90)
- AUC fold change vs. WT ([5]; OATP1B1^(tg) vs wild-type mice, letrozole 10 mg/kg oral): 1.29 (0.94–1.78)
- AUC fold change vs. WT ([5]; OATP1B3^(tg) vs wild-type mice, letrozole 10 mg/kg oral): 1.27 (0.83–1.95)
- AUC fold change vs. WT ([5]; Oatp1a/1b^(−/−) vs wild-type mice, letrozole 10 mg/kg oral): 1.3 (0.92–1.86)
- AUC(0-t) ([5]; AUC0–6h, OATP1B1^(tg) female mice, letrozole 10 mg/kg oral, mean with SEM): 33000 ng·h/mL
- AUC(0-t) ([5]; AUC0–6h, OATP1B3^(tg) female mice, letrozole 10 mg/kg oral, mean with SEM): 32400 ng·h/mL
- AUC(0-t) ([5]; AUC0–6h, Oatp1a/1b^(−/−) female mice, letrozole 10 mg/kg oral, mean with SEM): 33300 ng·h/mL
- AUC(0-t) ([5]; AUC0–6h, wild-type female mice, letrozole 10 mg/kg oral, mean with SEM): 25500 ng·h/mL
- AUC(0-t) ([5]; AUC0–24h, Cyp3a^(−/−) female mice, letrozole 10 mg/kg oral single dose, mean ± SEM): 141000 ng·h/mL
- AUC(0-t) ([5]; AUC0–24h, wild-type female mice, letrozole 10 mg/kg oral single dose, mean ± SEM): 88700 ng·h/mL
- Cmax ([5]; Cyp3a^(−/−) female mice, letrozole 10 mg/kg oral single dose, mean ± SEM): 6820 ng/mL
- Cmax ([5]; OATP1B1^(tg) female mice, letrozole 10 mg/kg oral, mean with SEM): 6550 ng/mL
- Cmax ([5]; OATP1B3^(tg) female mice, letrozole 10 mg/kg oral, mean with SEM): 6670 ng/mL
- Cmax ([5]; Oatp1a/1b^(−/−) female mice, letrozole 10 mg/kg oral, mean with SEM): 6750 ng/mL
- Cmax ([5]; wild-type female mice, letrozole 10 mg/kg oral single dose, Table 1 study, mean ± SEM): 5800 ng/mL
- Cmax ([5]; wild-type female mice, letrozole 10 mg/kg oral, Table 2 study, mean with SEM): 5180 ng/mL
- liver levels, wild-type vs Oatp1a/1b^(−/−) mice ([5]; single oral dose, letrozole 10 mg/kg or exemestane 20 mg/kg): higher levels
- liver concentrations in OATP1B1^(tg) or OATP1B3^(tg) mice ([5]; single oral dose, letrozole 10 mg/kg or exemestane 20 mg/kg, relative to Oatp1a/1b^(−/−) and wild-type): partially restored
